# Laboratory results: paper PMC8067632, “Assessment and Development of the Antifungal Agent Caspofungin for Aerosolized Pulmonary Delivery” (Pharmaceutics, 2021)
# Legend:
# Assay type in all cases: cell-based
# Candida krusei ATCC 6258 = test: microbe, parasite or virus in culture; settings: Pichia kudriavzevii, ATCC6258; CLSI broth microdilution, duplicate; read-out: MIC
# Description: (§1) Antifungal potency of the test article(s) was measured using the in vitro broth microdilution assay under test conditions described by the Clinical and Laboratory Standards Institute. Minimum Inhibitory Concentration (MIC) is defined as the lowest concentration of an agent that causes a specified reduction in visible growth of the microorganism. Minimum Effective Concentration (MEC) is defined as the lowest concentration of an agent that leads to the growth of small, rounded, compact hyphal forms, as compared to the hyphal growth typically seen in the growth control well. MIC values were determined for 9 Candida spp., and MEC values were determined for filamentous fungus species (Aspergillus fumigatus and Trichophyton rubrum). Details of the test article preparations and methodologies are described in Supplementary Material S1.
# (§2) Following incubation, the test plates were visually examined and wells were scored for growth or complete growth inhibition to define the MIC values. Microscopy examination was used to determine the MEC values. Each test substance was evaluated in duplicate and the results are the duplicate test values. Vehicle-control and an active reference agent were used as blank and positive controls, respectively. […]
# (§3) S1. In Vitro Testing, Test Article Preparations
# (§4) The 5 mg/mL stock solution was prepared as the following. The refrigerated vial was equilibrated to room temperature. Test vial was reconstituted aseptically with 10.5 mL 0.9% NaCl. The powder was dissolved completely, mixing until a clear solution was ob-tained. The final concentration was 5.0 mg/mL of caspofungin freebase. The reconstituted solution was stable for 1 hr at room temperature. The 5 mg/mL stock solution was then […]
# (§5) The refrigerated vial was equilibrated to room temperature. The powder was dis-solved completely, mixing until a clear solution was obtained. Test vial was reconstituted aseptically with 1.8 mL 0.9% NaCl. The white to off-white powder was dissolved com-pletely, mixing gently until a clear solution was obtained. The final concentration was 5.0 mg/mL of caspofungin freebase. The reconstituted solution was used within 1 hr at room temperature. The 5 mg/mL stock solution was then diluted with 0.9% NaCl to prepare the […]
# (§6) 1.3. Caspofungin Diacetate
# (§7) The 5 mg/mL API stock solution was prepared as the following. The refrigerated vial was equilibrated to room temperature. Test vial was filled aseptically with 1.8 mL 0.9%
# (§8) NaCl. The powder was dissolved completely, mixing until a clear solution was obtained.
# (§9) The final concentration was 5.0 mg/mL of caspofungin freebase. The reconstituted solu-tion was used within 1 hr at room temperature. The 5 mg/mL stock solution was then […]
# (§10) g compound, corresponding to 1.2 mg active compound with a correction factor of 2.40 was added 0.375 mL of water for injection to generate the 3.2 mg/mL working stock solution for testing. The 3.2 mg/mL working stock solution was 2-fold diluted seri-ally in 0.9% NaCl to prepare a total of eleven 50-fold stock solutions, concentrations rang-ing from 3.2 to 0.003 mg/mL. A 4 μL aliquot of each dilution was added to 196 μL of broth medium seeded with the organism suspension in wells of a 96 well plate (fungal cell count: 1 x 10^3 to 1 x 10^4 colony forming units per mL). The final volume was 200 μL in each […]
# [1] = system: Candida parapsilosis ATCC 22019; test: microbe, parasite or virus in culture; settings: Lodderomyces parapsilosis, ATCC22019; CLSI broth microdilution, duplicate; read-out: MIC
# Description: as §1, §2, §3, §4, §5, §6, §7, §8, §9, §10
# [2] = system: Candida albicans ATCC90028 + 50%human serum; test: microbe, parasite or virus in culture; settings: Candida albicans, ATCC90028, CLSI broth microdilution, duplicate, read-out: MIC
# Description: as §1, §2, §3, §4, §5, §6, §7, §8, §9, §10
# [3] = system: Candida albicans Azole-R (20183.073); test: microbe, parasite or virus in culture; settings: Candida albicans; CLSI broth microdilution, azole-resistant strain, duplicate; read-out: MIC
# Description: as §1, §2, §3, §4, §5, §6, §7, §8, §9, §10
# [4] = system: Candida albicans ATCC90028; test: microbe, parasite or virus in culture; settings: Candida albicans, ATCC90028; CLSI broth microdilution, visual, duplicate; read-out: MIC
# Description: as §1, §2, §3, §4, §5, §6, §7, §8, §9, §10
# [5] = system: Candida tropicalis ATCC 200956; test: microbe, parasite or virus in culture; settings: Candida tropicalis, ATCC200956; CLSI broth microdilution, duplicate; read-out: MIC
# Description: as §1, §2, §3, §4, §5, §6, §7, §8, §9, §10
# [6] = system: Candida glabrata ATCC 36583; test: microbe, parasite or virus in culture; settings: Nakaseomyces glabratus, ATCC36583; CLSI broth microdilution, duplicate; read-out: MIC
# Description: as §1, §2, §3, §4, §5, §6, §7, §8, §9, §10
# [7] = system: Candida albicans ATCC44858; test: microbe, parasite or virus in culture; settings: Candida albicans, ATCC44858; CLSI broth microdilution, visual, duplicate; read-out: MIC
# Description: as §1, §2, §3, §4, §5, §6, §7, §8, §9, §10
# [8] = system: Candida albicans Azole-R (20186.025); test: microbe, parasite or virus in culture; settings: Candida albicans
# Description: as §1, §2, §3, §4, §5, §6, §7, §8, §9, §10
# [9] = system: Trichophyton rubrum ATCC 10218; test: Broth microdilution MEC; settings: CLSI broth microdilution, microscopy, duplicate
# Description: as §1, §2, §3, §4, §5, §6, §7, §8, §9, §10
# [10] = system: Aspergillus fumigatus ATCC 13073; test: Broth microdilution MEC; settings: CLSI broth microdilution, microscopy, duplicate
# Description: as §1, §2, §3, §4, §5, §6, §7, §8, §9, §10
# [11] = system: Aspergillus fumigatus ATCC204305; test: Broth microdilution MEC; settings: CLSI broth microdilution, microscopy, duplicate
# Description: as §1, §2, §3, §4, §5, §6, §7, §8, §9, §10
smiles,measurement,setting,value
C[C@@H]1[C@H](O)[C@@H](C)/C=C/C=C/C=C/C=C/C=C/C=C/C=C/[C@H](O[C@@H]2O[C@H](C)[C@@H](O)[C@H](N)[C@@H]2O)C[C@@H]2O[C@](O)(C[C@@H](O)C[C@@H](O)[C@H](O)CC[C@@H](O)C[C@@H](O)CC(=O)O[C@H]1C)C[C@H](O)[C@H]2C(=O)O [Amphotericin B],MIC,Candida krusei ATCC 6258,0.25 µg/mL
same,MIC,[1],0.25 µg/mL
same,MIC,[2],0.25 µg/mL
same,MIC,[3],0.125 µg/mL
same,MIC,[4],0.125 µg/mL
same,MIC,[5],1 µg/mL
same,MIC,[6],0.125 µg/mL
same,MIC,[7],0.125 µg/mL
same,MIC,[8],0.25 µg/mL
same,MEC,[9],0.125 µg/mL
same,MEC,[10],0.25 µg/mL
same,MEC,[11],0.5 µg/mL
